In patent USRE38132E1, “Phenylpyrrolidines, phenylimidazolidines,3-phenyl-1,3-oxizolidines and 3-phenyl-1,3-thiazolidines and their use in the treatment of inflammatory disease” (Boehringer Ingelheim Pharmaceuticals, Inc., priority 1997, dated 2003):
pIC50, pKd: −log10 of the molar value. Like-named read-outs stand apart in the source and are kept apart here.

How the values were obtained:
[1] = molecular target: T1, interaction of ICAM-1 with the Leukointegrin CD18/CD11a (LFA-1) (Homo sapiens, UniProt P05107+P20701); assay: Assay to determine inhibition of LFA-1 binding to ICAM-1 (immunopurified LFA-1 on plate-bound sICAM-1, ELISA readout)
T1 construct: endogenous in cells; sICAM-1: made in house, secreted from transfected CHO DUX cells
T1 sequence (P20701 26-1170): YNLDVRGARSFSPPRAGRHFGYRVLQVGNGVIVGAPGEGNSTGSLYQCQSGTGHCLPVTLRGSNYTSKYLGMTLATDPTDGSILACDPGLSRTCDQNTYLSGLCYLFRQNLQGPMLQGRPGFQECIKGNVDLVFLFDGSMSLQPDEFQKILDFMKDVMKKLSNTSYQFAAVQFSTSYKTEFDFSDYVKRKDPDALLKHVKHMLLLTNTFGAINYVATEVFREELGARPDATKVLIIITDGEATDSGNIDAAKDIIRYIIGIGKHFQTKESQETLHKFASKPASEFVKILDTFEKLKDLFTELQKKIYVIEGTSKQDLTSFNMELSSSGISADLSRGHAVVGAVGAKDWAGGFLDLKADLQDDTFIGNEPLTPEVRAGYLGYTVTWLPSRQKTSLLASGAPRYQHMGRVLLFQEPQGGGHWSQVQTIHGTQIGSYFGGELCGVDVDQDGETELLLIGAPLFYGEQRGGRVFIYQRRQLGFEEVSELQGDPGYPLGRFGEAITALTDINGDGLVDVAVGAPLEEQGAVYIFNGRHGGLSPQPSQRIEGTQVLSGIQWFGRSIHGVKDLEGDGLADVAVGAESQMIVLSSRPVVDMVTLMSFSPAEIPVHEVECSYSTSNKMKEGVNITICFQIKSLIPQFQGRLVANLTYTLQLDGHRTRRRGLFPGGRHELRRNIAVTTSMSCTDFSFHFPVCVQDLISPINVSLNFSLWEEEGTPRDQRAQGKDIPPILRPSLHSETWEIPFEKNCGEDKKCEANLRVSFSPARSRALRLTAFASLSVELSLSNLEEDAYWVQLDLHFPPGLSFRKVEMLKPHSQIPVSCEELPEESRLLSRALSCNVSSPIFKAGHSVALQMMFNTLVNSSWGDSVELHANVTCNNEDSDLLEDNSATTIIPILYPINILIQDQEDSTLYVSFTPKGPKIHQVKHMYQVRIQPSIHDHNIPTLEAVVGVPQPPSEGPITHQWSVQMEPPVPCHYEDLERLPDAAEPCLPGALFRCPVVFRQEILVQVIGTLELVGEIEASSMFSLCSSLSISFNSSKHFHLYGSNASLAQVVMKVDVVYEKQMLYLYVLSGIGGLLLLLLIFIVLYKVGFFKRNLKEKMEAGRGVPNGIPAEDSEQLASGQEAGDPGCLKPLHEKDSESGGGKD
T1 sequence (P05107 23-769): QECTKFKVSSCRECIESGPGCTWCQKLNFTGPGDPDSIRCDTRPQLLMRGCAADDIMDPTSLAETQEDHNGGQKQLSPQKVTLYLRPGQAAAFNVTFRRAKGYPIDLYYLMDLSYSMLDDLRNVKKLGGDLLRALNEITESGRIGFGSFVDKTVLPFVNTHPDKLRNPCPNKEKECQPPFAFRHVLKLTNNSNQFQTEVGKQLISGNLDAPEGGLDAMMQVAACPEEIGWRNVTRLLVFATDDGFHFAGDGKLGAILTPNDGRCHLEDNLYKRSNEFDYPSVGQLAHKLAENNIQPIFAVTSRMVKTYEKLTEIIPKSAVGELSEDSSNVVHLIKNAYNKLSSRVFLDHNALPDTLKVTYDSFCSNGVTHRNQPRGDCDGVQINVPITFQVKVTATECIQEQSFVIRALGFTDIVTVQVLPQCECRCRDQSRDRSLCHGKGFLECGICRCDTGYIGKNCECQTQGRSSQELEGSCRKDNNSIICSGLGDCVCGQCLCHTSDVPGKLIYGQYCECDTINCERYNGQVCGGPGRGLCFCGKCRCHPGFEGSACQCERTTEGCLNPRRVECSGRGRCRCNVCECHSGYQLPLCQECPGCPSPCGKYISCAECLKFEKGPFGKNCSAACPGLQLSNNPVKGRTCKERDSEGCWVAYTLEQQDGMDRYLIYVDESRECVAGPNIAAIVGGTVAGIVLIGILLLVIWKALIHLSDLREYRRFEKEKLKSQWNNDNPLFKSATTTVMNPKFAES

[2] = test system: cell bound form of LFA-1 (CD18, CD11a) with ICAM-1, SKW3 cells; assay: Inhibition of SKW3 cell binding to ICAM-1 (PMA-stimulated); assay type: cell-based, human; conditions: read-out: Assay to Detect SKW3 Cells Binding to ICAM IC50
Text: (§1) Assay to Determine Inhibition of SKW3 cell binding to ICAM-1 vs. Binding to Fibronectin
(§2) This assay is used to test the selective ability of a test compound to antagonize the interaction of a cell bound form of LFA-1 with ICAM-1. The assay uses a human T cell line, SKW3 cells which express CD18, CD11a and other integrins not related to CD18, CD11a and which can be “activated” by phorbol esters. Phorbol esters enhance the affinity of CD18, CD11a for ICAM-1.
(§3) This same lymphocyte line, SKW3, also adheres to fibronectin in the presence of phorbol esters. This adhesion is mediated by membrane proteins independent of the LFA-1/ICAM-1 interaction. The SKW3 cells express another integrin, VLA4, which is the receptor for fibronectin. Therefore, as a preliminary indication of the selectivity of a test compounds to interfere with Leukointegrin/CAM interactions but not other integrin-ligand binding events, a compound can be tested for its ability to antagonize cell bound fibronectin receptor in its interaction with purified fibronectin. Compounds that inhibit this fibronectin adhesion are not specific antagonists of the CD18, CD11a/ICAM-1 binding.
(§4) Description of Assay Protocol:
(§5) Ninety-six well plates are coated with either sICAM-1(40 μg/mL) or fibronectin (100 μg/mL) in Diluting buffer for 1 h at room temperature. Added to the wells are 100 μL of the appropriately diluted test compound or 100 μL of RPMI with 15% fetal bovine serum as a control. SKW3 cells, which express CD18, CD11a and VLA4 (Dustin, M.; et al., J. Exp. Med. 1987, 165, 672-692) are washed and suspended to a concentration of 10^6 cells/mL in RPMI with 15% fetal bovine serum. Immediately before adding the cells to the wells, cells are stimulated with the phorbol ester 12-myristate 13-acetate (PMA) for a final concentration of […]. 100 μL of cells are then added to the wells resulting in a final concentration of […]. The plates are incubated for 2 h at 37° C. Unbound or loosely bound cells are gently washed away with RPMI.
(§6) Data are reported as the concentration or concentration range (in μM) at which 50% of binding is inhibited.

[3] = test system: cell bound fibronectin receptor (VLA4) with fibronectin, SKW3 cells; assay: Inhibition of SKW3 cell binding to fibronectin (selectivity counter-assay); assay type: cell-based, human; conditions: for pIC50: Homo sapiens, read-out: Assay to Detect SKW3 Cells Binding to FIBRONECTIN IC50
Text: as §1, §2, §3, §4, §5, §6

[4] = test system: LFA-1 dependent aggregation of JY cells; assay: JY cell homotypic aggregation assay (PMA-stimulated); assay type: cell-based, human; conditions: Homo sapiens
Text: This aggregation can be enhanced by the addition of phorbol esters. […] Thus, the extent of LFA-1-dependent binding may be determined by assessing the extent of spontaneous or phorbol ester-dependent aggregate formation.
An agent which interferes with LFA-1 -dependent aggregation can be identified through the use of an assay capable of determining whether the agent interferes with either spontaneous, or phorbol ester-dependent aggregation of Epstein-Barr virus transformed cells. It is preferable to employ cells of the JY cell line (Terhost, L; et aL, Proc. Natl. Acad. Sci. USA, 1976, 73, 910) for the homotypic aggregation assay. This assay, capable of measuring LFA-1 dependent aggregation, may be employed to identify agents which act as antagonists to the LFA-1 dependent aggregation. Such agents may act by impairing the ability of either LFA-1 or ICAM-1 to mediate aggregation. Thus, agents may be examined to directly determine if they are antagonists of LFA-1 aggregation.
as §4
JY cells are cultured in RPMI 1640 culture medium supplemented with 10% fetal calf serum and 50 μg/mL gentamycin. The cells are cultured at 37° C. in an atmosphere of 5% CO2 at a relative humidity of 95%. JY cells used in this assay are washed two times with RPMI 1640 medium containing 5 mM HEPES buffer and resuspended to a concentration of 2·10^6 cells/mL. Added to flat-bottomed, 96-well microtiter plates are 50 μL of test compound diluted in complete medium, 50 μL of complete medium with or without purified monoclonal antibodies (negative and positive controls for inhibition, respectively), 50 μL of complete medium containing 200 ng/mL of the phorbol ester phorbol myristate acetate (PMA) and 100 μL of cells at a concentration of 2·10^6 cells/mL in complete medium. This yields a final concentration of […] PMA and 2·10^5 cells/well. Cells are allowed to settle spontaneously, and the degree of aggregation is scored at various time points. […] This procedure has been described by Rothlein, R. R.; et al., J. Exp. Med. 1986, 163, 1132-1149. This paper also reported that antibody to LFA-1 is capable of inhibiting the formation of aggregates.
as §6

[5] = test system: SKW3 cells
Text: MMT Assay to Determine Cytotoxicity
MTT, (3-(4,5-dimethylthiazol-2-yl)-2,5-diphenyl-2H-tetrazolium bromide), is a yellow substrate that is cleaved by cells with active mitochondria to yield a dark blue/purple formazan product. […] The amount of color is proportional to the number of viable cells. This assay system is used to assess the effect of test compounds on cell viability in vitro.
SKW3 cells, which express LFA-1, are used. Cells used in each assay were adjusted to 1.25·10^6 cells/mL and 100 μL of this stock is dispersed into each well of a 96 well, flat bottom microtiter plate. For each condition in a particular experiment, triplicate wells are set up. Serial dilutions of each test compound or vehicle alone are added to each well. Cells are incubated with compound for 4-24 h at 37° C. before cell viability is assessed. Next, 10 μL of filter sterilized MTT is added to each well. The MTT stock is made in phosphate buffered saline at a concentration of 5 mg/mL. Plates are then incubated for 1 h at 37° C., 5% CO2 atmosphere. Periodically, the plates are examined for formazan crystal development.
At the end of the incubation period, formazan crystals are dissolved by the addition of 100 μL of 0.04 N HCl in iso-propyl alcohol to each well. Each well is thoroughly mixed by repeated pipetting with a multichannel pipetter. The plates are allowed to sit at room temperature for 15-20 minutes and are then read with a spectrophotometer. Absorbance is measured at the test wavelength of 570 nm. Data are reported as the concentration range (in μM) wherein 50% of the cells are no longer viable.

[6] = values marked e approximated from incomplete dose-response curve
[7] = Homo sapiens, SKW3, values marked c: no inhibition observed up to highest dose
[8] = values marked c: no inhibition observed up to highest dose
[9] = No inh = no inhibition observed up to highest dose, exact quantification not always possible due to intrinsic toxicity
[10] = SKW3, values marked c: no inhibition observed up to highest dose

Structure (SMILES) | pKd [1, 6] | pIC50 [2, 7] | Assay to Detect SKW3 Cells Binding to FIBRONECTIN IC50 [3, 8] | pIC50 [4] | Cellular Toxicity Assay MTT LD50 [5] [µM] | pKd [1] | pIC50 ([2]; Homo sapiens, SKW3) | Assay to Detect SKW3 Cells Binding to FIBRONECTIN IC50 [3, 9] | pIC50 [3, 10] | pIC50 ([3]; SKW3, No inh = no inhibition observed up to highest dose, exact quantification not always possible due to intrinsic toxicity) | pIC50 [2, 8]
CN1C(=O)N(c2cc(Cl)cc(Cl)c2)C(=O)C1(C)Cc1ccc(Cl)cc1 (stereo not drawn) [Example 154] | 7.03 | 5.00 to 5.30 | No inh^c | 6.40 | 200 |  |  |  |  |  | 
C[C@@]1(Cc2ccc(Br)cc2)C(=O)N(c2cc(Cl)cc(Cl)c2)C(=O)N1CCCCCC#N [Example 257] |  |  |  | 6.22 | 300 | 7.10 | 5.80 | No inh^c |  |  | 
C[C@@]1(Cc2ccc(Br)cc2)C(=O)N(c2cc(Cl)cc(Cl)c2)C(=O)N1Cc1ccncc1 [Example 103] | 7.00 | 4.60 |  | 6.89 | 25 to 50 |  |  |  | < 4.60 |  | 
C[C@@]1(Cc2ccc(Br)cc2)C(=O)N(c2cc(Cl)cc(Cl)c2)C(=O)N1CCCCCNC(=N)N [Example 264] |  |  |  | 6.40 | 12 to 24 | 6.92 | 5.30 to 5.70 | No inh^c |  |  | 
C[C@]1(Cc2cc(Br)cc(Br)c2)NC(=O)N(c2cc(Cl)cc(Cl)c2)C1=O [Example 40] | 6.32 | 4.00 to 4.30 |  | 4.60 | 50 to 100 |  |  |  | 4.00 to 4.30 |  | 
C[C@@]1(Cc2ccc(Br)cc2)C(=O)N(c2cc(Cl)cc(Cl)c2)C(=O)N1CCCCn1ccnc1 [Example 252] |  |  |  | 6.52 | 17 to 20 | 6.96 | 6.10 to 6.40 | No inh^c |  |  | 
CC(C)N1C(=O)N(c2cc(Cl)cc(Cl)c2)C(=O)[C@]1(C)Cc1ccc(Br)cc1 [Example 274] |  |  |  | 5.52 | 200 to 300 | 6.85 | 4.30 to 4.60 |  |  | < 4.00 | 
CC1(Cc2c[nH]c3ccccc23)NC(=O)N(c2cc(Cl)cc(Cl)c2)C1=O (stereo not drawn) [Example 23] | 6.11 |  |  | 4.89 | 50 to 100 |  |  |  | < 4.00 |  | 4.30 to 4.60
CN1C(=S)N(c2cc(Cl)cc(Cl)c2)C(=O)C1(C)Cc1ccc(Br)cc1 (stereo not drawn) [Example 80] | 6.72 | 5.30 | No inh^c | 5.49 | >400 |  |  |  |  |  | 
CN1C(=O)N(c2cc(Cl)cc(Cl)c2)C(=O)C1(CCO)Cc1ccc(Br)cc1 (stereo not drawn) [Example 244] |  |  |  | 5.66 | 200 to 400 | 5.40 | 5.10 to 5.40 | No inh^c |  |  | 
CCCC1(Cc2ccccc2)C(=O)N(c2cc(Cl)cc(Cl)c2)C(=O)N1C (stereo not drawn) [Example 94] | 6.13 | 4.00 to 4.30 | No inh^c | 4.60 | 200 |  |  |  |  |  | 
C[C@]1(Cc2ccc(-c3cccnc3)cc2)NC(=O)N(c2cc(Cl)cc(Cl)c2)C1=O [Example 190] | 6.37 | 4.92 to 5.22 | No inh^c | 5.85 | 50 to 100 |  |  |  |  |  | 
